Experimental data from ChEMBL document CHEMBL3217579, “Prodrug ionic liquids: functionalizing neutral active pharmaceutical ingredients to take advantage of the ionic liquid form” (Medchemcomm, 2013).

Key:
[1] = Prodrug conversion in simulated intestinal fluid assessed as acetominophen formation at pH 6.8 after 210 mins; format: ADME; conditions: simulated gi fluid, pH 6.8, 3.5 h
[2] = Prodrug conversion in PBS buffer assessed as acetominophen formation at pH 7.4 after 210 mins; format: physicochemical; conditions: pH 7.4, 3.5 h
[3] = Prodrug conversion in simulated gastric fluid assessed as acetominophen formation at pH 1.2 after 210 mins; format: ADME, Stomach; conditions: simulated gi fluid, pH 1.2, 3.5 h

Measured: Drug metabolism

CC(=O)Nc1ccc(OC(=O)Cn2cc[n+](C)c2)cc1.[Cl-]
Active: [1] | [2] | [3]
